Numbers after ± are expanded uncertainties.
Key:
[1] = molar heat capacity at constant pressure; conditions: 101.33 kPa, Crystal
[2] = Crystal; DTA
[3] = Molar enthalpy of transition or fusion; conditions: Crystal

Cc1ccc2ccc3ccc(C)nc3c2n1 [2,9-dimethyl-1,10-phenanthroline]
[1]
Conditions	molar heat capacity at constant pressure [J/K/mol]
298.2 K	253 ± 81
303.2 K	274 ± 88
308.2 K	292 ± 93
313.2 K	306 ± 98
318.2 K	321 ± 100
323.2 K	331 ± 110
328.2 K	345 ± 110
333.2 K	354 ± 110
338.2 K	361 ± 120
343.2 K	370 ± 120
348.2 K	373 ± 120
353.2 K	374 ± 120
358.2 K	383 ± 120
363.2 K	383 ± 120
368.2 K	387 ± 120
373.2 K	384 ± 120
378.2 K	386 ± 120
383.2 K	390 ± 120
388.2 K	386 ± 120
393.2 K	383 ± 120

Conditions	Molar enthalpy of transition or fusion [kJ/mol]	Triple point temperature [K]
[2]	–	435.9 ± 1
[3]	17.6 ± 5	–

c1cnc2c(c1)ccc1cccnc12 [1,10-phenanthroline]
[1]
Conditions	molar heat capacity at constant pressure [J/K/mol]
298.2 K	115 ± 37
300.2 K	116 ± 37
302.2 K	117 ± 37
304.2 K	125 ± 40
306.2 K	127 ± 41
308.2 K	133 ± 43
310.2 K	140 ± 45
312.2 K	150 ± 48
314.2 K	156 ± 50
316.2 K	165 ± 53
318.2 K	175 ± 56
320.2 K	184 ± 59
322.2 K	192 ± 61
324.2 K	199 ± 64
326.2 K	206 ± 66
328.2 K	213 ± 68
330.2 K	221 ± 71
332.2 K	226 ± 72
334.2 K	235 ± 75
336.2 K	237 ± 76
338.2 K	245 ± 78
340.2 K	247 ± 79
342.2 K	253 ± 81
344.2 K	253 ± 81
346.2 K	256 ± 82
348.2 K	260 ± 83
350.2 K	263 ± 84
352.2 K	265 ± 85
354.2 K	270 ± 86
356.2 K	271 ± 87
358.2 K	276 ± 88
360.2 K	279 ± 89

Conditions	Molar enthalpy of transition or fusion [kJ/mol]	Triple point temperature [K]
[2]	–	391.1 ± 0.6
[3]	11.8 ± 3.7	–
